Legend:
[1] = system: TT-specific antibodies of the IgG class; parameters: species or system BALB/Ca mice; conditions: mouse, in vivo
Protocol: (§1) Tetanus toxoid (TT) containing 3.0 mg protein/ml, (obtained from Statens Serum Institut, DK-2300 Copenhagen S, Denmark).
(§2) Prepared from Mg(OH)2 gel (Reheis, USA). • Magnesium carbonate hydroxide pentahydrate, (MgCO3)4Mg(OH)25H2O, 0.05 M Mg^2+. […] Preparation of the Vaccine Formulations: […]
(§3) TT was dissolved or diluted to a concentration 10 times that of the concentration in the final vaccine formulation. The adjuvant was dissolved or diluted to a concentration five times that of the concentration in the final vaccine formulation, with regard to the cation. 1 volume TT solution was slowly mixed with 2 volumes adjuvant, and left stirring over night at 4° C. The following day 7 volumes Coca 0.0 buffer (0.25% sodium hydrogen carbonate and 0.5% sodium chloride) was slowly added. The adjuvant free vaccine was prepared as above, with the modification that the adjuvant was substituted with Coca 0.0 buffer. […]
(§4) Blood samples were drawn from the retro orbital vein every 7 days, starting on day 0. Serum was separated from the blood sample, and stored at −20° C., until analysed.
(§5) Serum samples were analysed for the presence of TT-specific immune response by means of a direct enzyme linked immunosorbent assay (ELISA), measuring TT-specific antibodies of the IgG class. […]
(§6) Bound antibodies were detected by serial incubations of the plate with a biotinylated, polyclonal antiserum to mouse IgG (obtained from Jackson Laboratories, Bar Harbour, Me., USA) followed by a streptavidine-horseradish peroxidase conjugate (obtained from DAKO A/S, Glostrup, Denmark). The plates were developed for 20 minutes with 100 μl readymade TMB substrate (Kem-En-Tech, Denmark) per well, and the reaction as stopped with an equal volume of 1M H2SO4.
(§7) The developed colour reaction was measured as absorption at 450 nm. […]
(§8) The strength of the TT-specific antibody response in each serum sample was measured as an arbitrary titre, determined as the serum dilution giving an absorption signal equal to 50% of that obtained with a 3000 fold dilution of the TT-specific monoclonal antibody. […]

[2] = current use as antacid, laxative, topical or cosmetic; cited from earlier work
[3] = system: TT-specific antibodies of the IgG class; parameters: species or system BALB/Ca mice; conditions: mouse, in vivo, sc
Protocol: as §1, §2, §3, §4, §5, §6, §7, §8

[4] = magnesium hydroxide alone; cited from earlier work

| Compound | onset of specific immune response compared with Al(OH)3 formulation [1] | Dose (recommended maximum dose) [2] [g per kg bodyweight] | potency at inducing TT-specific antibodies compared with vaccine formulation containing Al(OH)3 [3] | adsorbent activity [4] |
| --- | --- | --- | --- | --- |
| Titanium dioxide | earlier onset | 1.0 | more potent |  |
| [Mg+2].[OH-].[OH-] [magnesium hydroxide, Magnesium hydroxide] | earlier onset | 0.5 | more potent | low |
| Magnesium carbonate hydroxide pentahydrate [magnesium carbonate pentahydrate] | earlier onset | 0.5 | more potent |  |

— US7785611B2, “Parenteral vaccine formulations and uses thereof” (ALK-Abello A/S, priority 2000, dated 2010)
